Assay results: publication PMC12389619, “Discovery and Evaluation of Novel Sulfonamide Derivatives Targeting Aromatase in ER+ Breast Cancer” (Pharmaceuticals, 2025)
Read-outs that look alike come from different tables or passages of the source.

Assays:
[1] = system: MCF7 human breast cancer cell line; assay: MTT cytotoxicity assay on MCF7; details: read-out: MCF7 IC50
Method: (§1) MCF7 and NIH3T3 were grown in Dulbecco’s Modified Eagle Medium (DMEM, Sigma-Aldrich, USA); supplemented with 10% fetal bovine serum (Capricorn Scientific, Ebsdorfergrund, Germany) and 1% antibiotics (100 mg/mL of streptomycin and 100 units of penicillin, Sigma-Aldrich, Taufkirchen, Germany); and incubated until confluent at 37 °C in a humidified incubator with a 5% CO2 atmosphere.
(§2) The cytotoxicity assays were performed using the human MCF7, mouse fibroblast NIH3T3, and human non-tumorigenic mammary epithelial MCF12A cell lines in accordance with the MTT procedure previously reported [37, 38].
(§3) The compounds were dissolved in dimethyl sulfoxide (DMSO, AppliChem, Darmstadt, Germany) and diluted to the required concentrations with fresh medium, while the solvent control was prepared with a medium containing 0.1% DMSO. The half-maximal inhibitory concentrations (IC50) of the compounds were determined by calculating the cell viability via the MTT assay. The cells were harvested and counted using an automated cell counter (LUNA II, Logos Biosystems, Gyeonggi, Republic of Korea). […] Following a 24 h incubation period, the MTT solution was added to the wells to a final concentration of 5 mg/mL. The cells were incubated for a 3 h period, after which point the medium was removed and 100 µL of DMSO was added. The absorbances were measured at 540 nm using a MultiMode Plate Reader (BioTek, HTX Synergy, Winooski, Vermont, USA).

[2] = system: NIH3T3 mouse fibroblast cell line; assay: MTT cytotoxicity assay on NIH3T3; details: read-out: NIH3T3 IC50
Method: as §1, §2, §3

[3] = biological target: T1, Aromatase (CYP19A) (Homo sapiens, UniProt P11511); assay: biochemical
T1 sequence (P11511 1-503): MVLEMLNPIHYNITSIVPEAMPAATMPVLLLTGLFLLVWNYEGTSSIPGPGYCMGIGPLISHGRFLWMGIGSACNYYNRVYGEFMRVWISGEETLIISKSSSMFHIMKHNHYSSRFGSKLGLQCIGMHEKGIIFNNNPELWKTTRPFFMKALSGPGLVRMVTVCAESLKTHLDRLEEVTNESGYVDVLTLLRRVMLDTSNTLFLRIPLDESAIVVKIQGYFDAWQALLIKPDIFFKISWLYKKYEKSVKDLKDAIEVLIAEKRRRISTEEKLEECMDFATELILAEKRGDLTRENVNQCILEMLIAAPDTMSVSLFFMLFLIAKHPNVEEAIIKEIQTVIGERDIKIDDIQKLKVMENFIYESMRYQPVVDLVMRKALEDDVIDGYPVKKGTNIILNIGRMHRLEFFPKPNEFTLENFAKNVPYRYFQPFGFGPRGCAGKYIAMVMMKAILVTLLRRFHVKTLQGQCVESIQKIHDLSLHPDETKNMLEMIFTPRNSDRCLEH

[4] = system: MCF12A non-tumorigenic mammary cell line; assay: MTT cell viability on MCF12A; assay type: cell-based, human; details: concentration range 1 mM–1 nM, 24 h
Method: This fact is of crucial importance to the effective and safe treatment of cancer since selectivity refers to the ability of a drug to target cancer cells while minimizing the harm to healthy cells. This targeted approach has the potential to yield more efficacious therapies with a reduced incidence of adverse effects, thereby enhancing patient outcomes.
MCF12A was maintained in DMEM/Ham’s F12 (1:1); supplemented with 5% horse serum, 20 ng/mL of human epidermal growth factor, 0.01 mg/mL of bovine insulin, 500 ng/mL of hydrocortisone, and 100 U/mL (50 µg/mL) of penicillin–streptomycin; and maintained at 37 °C in a humidified atmosphere of 5% CO2.

[5] = biological target: T1, Aromatase (CYP19A); details: read-out: Aromatase IC50; means of quartet assays

| Compound | IC50 ([1]; Homo sapiens, MCF7, 24 h) [µM] | IC50 ([2]; Mus musculus, NIH3T3, 24 h) [µM] | IC50 [3] [µM] | effect on MCF12A cell viability [4] | IC50 ([1]; MTT, 24 h, means of quartet assays) [µM] | IC50 ([2]; MTT, 24 h, healthy model, means of quartet assays) [µM] | IC50 [5] [µM] |
| --- | --- | --- | --- | --- | --- | --- | --- |
| Cc1ccc(S(=O)(=O)NCCN2CCCCC2)cc1 [Compound 11] | 43.6 ± 1.86 | 29.6 ± 0.812 |  |  |  |  |  |
| O=S(=O)(NCCc1ccccn1)c1ccccc1 [Compound 1, N-(2-(pyridin-2-yl)ethyl)benzenesulfonamide] | 7.51 ± 0.296 | 46.9 ± 1.99 |  |  |  |  |  |
| Cc1ccc(S(=O)(=O)NCCC2CCCN2C)cc1 (stereo not drawn) [Compound 14, 4-methyl-N-(2-(1-methylpyrrolidin-2-yl)ethyl)benzenesulfonamide] | 10.5 ± 0.477 | 56.1 ± 1.93 | 0.051 ± 0.001 |  |  |  |  |
| O=S(=O)(NCCN1CCCCC1)c1ccccc1 [Compound 9, N-(2-(piperidin-1-yl)ethyl)benzenesulfonamide] | 3.29 ± 0.119 | 58.2 ± 0.952 |  | no effects |  |  |  |
| Cc1ccc(S(=O)(=O)Nc2ccccn2)cc1 [Compound 3, 4-metyl-N-(pyridin-2-yl)benzenesulfonamide] | 2.68 ± 0.104 | 64.3 ± 1.83 | 0.035 ± 0.001 |  |  |  |  |
| Cc1ccc(S(=O)(=O)Nc2ccc(Cl)cn2)cc1 [Compound 4, N-(5-chloropyridin-2-yl)-4-methylbenzenesulfonamide] | > 100 | > 100 | > 100 |  |  |  |  |
| Cc1ccc(S(=O)(=O)NCCc2ccccn2)cc1 [Compound 2, 4-methyl-N-(2-(pyridin-2-yl)ethyl)benzenesulfonamide] | 15.4 ± 0.356 | 51.4 ± 1.74 | 0.248 ± 0.01 |  |  |  |  |
| Cc1ccc(S(=O)(=O)Nc2ncc(Cl)cc2Cl)cc1 [Compound 5, N-(3,5-dichloropyridin-2-yl)-4-methylbenzenesulfonamide] | > 100 | 76.6 ± 1.13 | > 100 |  |  |  |  |
| O=S(=O)(NC1CCN(Cc2ccccc2)CC1)c1ccccc1 [Compound 7, N-(1-benzylpiperidin-4-yl)benzenesulfonamide] | 28.5 ± 0.514 | 44.3 ± 1.05 | > 1000 |  |  |  |  |
| O=S(=O)(Cc1ccccc1)NCCN1CCOCC1 [Compound 17, N-(2-morpholinoethyl)-1-phenylmethanesulfonamide] | 14.6 ± 0.522 | 43.1 ± 1.03 | 0.206 ± 0.009 |  |  |  |  |
| Cc1ccc(S(=O)(=O)NCCCN2CCCC2)cc1 [Compound 12, 4-methyl-N-(3-(pyrrolidin-1-yl)propyl)benzenesulfonamide] | 32.1 ± 1.17 | > 100 | > 1000 |  |  |  |  |
| CN1CCCC1CCNS(=O)(=O)c1ccccc1 (stereo not drawn) [Compound 13, N-(2-(1-methylpyrrolidin-2-yl)ethyl)benzenesulfonamide] | 8.06 ± 0.319 | 49.6 ± 1.73 |  |  |  |  |  |
| O=S(=O)(NCCN1CCOCC1)c1ccccc1 [Compound 15, N-(2-morpholinethyl)benzenesulfonamide] | 12.4 ± 0.417 | 39.3 ± 0.995 |  |  |  |  |  |
| O=S(=O)(Cc1ccccc1)NCCN1CCCCC1 [Compound 10, 1-phenyl-N-(2-(piperidin-1-yl)ethyl)methanesulfonamide] | 6.2 ± 0.258 | 30.9 ± 1.03 | 0.052 ± 0.002 |  |  |  |  |
| COc1cccc2c1C(=O)c1c(O)c3c(c(O)c1C2=O)C[C@@](O)(C(=O)CO)C[C@@H]3O[C@H]1C[C@H](N)[C@H](O)[C@H](C)O1 [Doxorubicin, reference compound] |  | > 100 |  |  |  |  |  |
| Cc1ccc(S(=O)(=O)NC2CCN(Cc3ccccc3)CC2)cc1 [Compound 8, N-(1-benzylpiperidin-4-yl)-4-methylbenzenesulfonamide] | > 100 | > 100 | > 1000 |  |  |  |  |
| 4-methyl-N-(2-morpholinethyl)benzenesulfonamide [Compound 16] |  |  |  |  | 19.6 ± 0.678 | 50.9 ± 1.51 | 0.16 ± 0.006 |
| O=S(=O)(Cc1ccccc1)Nc1ncc(Cl)cc1Cl [Compound 6, N-(3,5-dichloropyridin-2-yl)-1-phenylmethanesulfonamide] | 25.3 ± 0.945 | > 100 | > 100 |  |  |  |  |
